## CCOC(=O)Cc1c(C(=O)OCC)sc(N(CC(=O)OCC)CC(=O)OCC)c1C#N
In acetone, 283.15 K
  solubility (mole fraction): 0.0364
In acetone, 285.65 K
  solubility (mole fraction): 0.0394
In acetone, 288.15 K
  solubility (mole fraction): 0.043
In acetone, 290.65 K
  solubility (mole fraction): 0.0456
In acetone, 293.15 K
  solubility (mole fraction): 0.0498
In acetone, 295.65 K
  solubility (mole fraction): 0.0538
In acetone, 298.15 K
  solubility (mole fraction): 0.0582
In acetone, 300.65 K
  solubility (mole fraction): 0.0627
In acetone, 303.15 K
  solubility (mole fraction): 0.0672
In acetone, 305.65 K
  solubility (mole fraction): 0.073
In acetone, 308.15 K
  solubility (mole fraction): 0.079
In acetone, 310.65 K
  solubility (mole fraction): 0.0853
In acetone, 313.15 K
  solubility (mole fraction): 0.0921
In acetone, 315.65 K
  solubility (mole fraction): 0.0995
In acetone, 318.15 K
  solubility (mole fraction): 0.107
In acetone, 320.65 K
  solubility (mole fraction): 0.116
In acetone, 323.15 K
  solubility (mole fraction): 0.126
In acetonitrile, 283.15 K
  solubility (mole fraction): 0.0196
In acetonitrile, 285.65 K
  solubility (mole fraction): 0.0211
In acetonitrile, 288.15 K
  solubility (mole fraction): 0.0234
In acetonitrile, 290.65 K
  solubility (mole fraction): 0.0255
In acetonitrile, 293.15 K
  solubility (mole fraction): 0.028
In acetonitrile, 295.65 K
  solubility (mole fraction): 0.0303
In acetonitrile, 298.15 K
  solubility (mole fraction): 0.0334
In acetonitrile, 300.65 K
  solubility (mole fraction): 0.0365
In acetonitrile, 303.15 K
  solubility (mole fraction): 0.0396
In acetonitrile, 305.65 K
  solubility (mole fraction): 0.0433
In acetonitrile, 308.15 K
  solubility (mole fraction): 0.0473
In acetonitrile, 310.65 K
  solubility (mole fraction): 0.0515
In acetonitrile, 313.15 K
  solubility (mole fraction): 0.0562
In acetonitrile, 315.65 K
  solubility (mole fraction): 0.0612
In acetonitrile, 318.15 K
  solubility (mole fraction): 0.067
In acetonitrile, 320.65 K
  solubility (mole fraction): 0.0734
In acetonitrile, 323.15 K
  solubility (mole fraction): 0.0805
In cyclohexane, 283.15 K
  solubility (mole fraction): 5.19e-05
In cyclohexane, 285.65 K
  solubility (mole fraction): 6.04e-05
In cyclohexane, 288.15 K
  solubility (mole fraction): 7.21e-05
In cyclohexane, 290.65 K
  solubility (mole fraction): 8.6e-05
In cyclohexane, 293.15 K
  solubility (mole fraction): 0.000102
In cyclohexane, 295.65 K
  solubility (mole fraction): 0.00012
In cyclohexane, 298.15 K
  solubility (mole fraction): 0.000142
In cyclohexane, 300.65 K
  solubility (mole fraction): 0.00017
In cyclohexane, 303.15 K
  solubility (mole fraction): 0.000199
In cyclohexane, 305.65 K
  solubility (mole fraction): 0.000236
In cyclohexane, 308.15 K
  solubility (mole fraction): 0.000279
In cyclohexane, 310.65 K
  solubility (mole fraction): 0.000324
In cyclohexane, 313.15 K
  solubility (mole fraction): 0.00038
In cyclohexane, 315.65 K
  solubility (mole fraction): 0.000444
In cyclohexane, 318.15 K
  solubility (mole fraction): 0.000516
In cyclohexane, 320.65 K
  solubility (mole fraction): 0.000596
In cyclohexane, 323.15 K
  solubility (mole fraction): 0.0007
In ethanol, 283.15 K
  solubility (mole fraction): 0.000512
In ethanol, 285.65 K
  solubility (mole fraction): 0.000635
In ethanol, 288.15 K
  solubility (mole fraction): 0.00079
In ethanol, 290.65 K
  solubility (mole fraction): 0.000971
In ethanol, 293.15 K
  solubility (mole fraction): 0.0012
In ethanol, 295.65 K
  solubility (mole fraction): 0.00148
In ethanol, 298.15 K
  solubility (mole fraction): 0.00178
In ethanol, 300.65 K
  solubility (mole fraction): 0.00216
In ethanol, 303.15 K
  solubility (mole fraction): 0.00264
In ethanol, 305.65 K
  solubility (mole fraction): 0.0032
In ethanol, 308.15 K
  solubility (mole fraction): 0.0038
In ethanol, 310.65 K
  solubility (mole fraction): 0.00457
In ethanol, 313.15 K
  solubility (mole fraction): 0.00543
In ethanol, 315.65 K
  solubility (mole fraction): 0.00645
In ethanol, 318.15 K
  solubility (mole fraction): 0.00768
In ethanol, 320.65 K
  solubility (mole fraction): 0.00904
In ethanol, 323.15 K
  solubility (mole fraction): 0.0107
In ethyl acetate, 283.15 K
  solubility (mole fraction): 0.0224
In ethyl acetate, 285.65 K
  solubility (mole fraction): 0.0259
In ethyl acetate, 288.15 K
  solubility (mole fraction): 0.0296
In ethyl acetate, 290.65 K
  solubility (mole fraction): 0.0339
In ethyl acetate, 293.15 K
  solubility (mole fraction): 0.0389
In ethyl acetate, 295.65 K
  solubility (mole fraction): 0.0442
In ethyl acetate, 298.15 K
  solubility (mole fraction): 0.0509
In ethyl acetate, 300.65 K
  solubility (mole fraction): 0.0578
In ethyl acetate, 303.15 K
  solubility (mole fraction): 0.066
In ethyl acetate, 305.65 K
  solubility (mole fraction): 0.0741
In ethyl acetate, 308.15 K
  solubility (mole fraction): 0.083
In ethyl acetate, 310.65 K
  solubility (mole fraction): 0.0927
In ethyl acetate, 313.15 K
  solubility (mole fraction): 0.105
In ethyl acetate, 315.65 K
  solubility (mole fraction): 0.118
In ethyl acetate, 318.15 K
  solubility (mole fraction): 0.132
In ethyl acetate, 320.65 K
  solubility (mole fraction): 0.146
In ethyl acetate, 323.15 K
  solubility (mole fraction): 0.163

— BigSolDB 2.1
